Literature values in US8951536B2, “N-hydroxyamidinoheterocycles as modulators of indoleamine 2,3-dioxygenase” (Incyte Corporation, priority 2005, dated 2015).

Assays:
P815 tumor = conditions: pre-immunized immune-competent mice; Uyttenhove et al.
LLC tumors = LLC tumors in C57Bl/6 mice, versus placebo; Friberg et al.
tumor growth in mice = conditions: Muller et al. 2005
[1] = test system: HeLa cells co-cultured with peripheral blood lymphocytes (PBLs); conditions: Logan et al. 2002
[2] = test system: pregnant mice (carrying syngeneic or allogeneic fetuses); conditions: pregnant mice exposed to 1MT; Munn et al. 1998
[3] = test system: CD123-positive dendritic cells; conditions: mature and immature CD123-positive dendritic cells; Munn et al. 2002

Row | SMILES | growth of tumors (P815 tumor) | formation of tumors (LLC tumors) | tumor growth with chemotherapeutic agents (tumor growth in mice) | reduction in PBL proliferation upon treatment with IL2 [1] | rejection of allogeneic concepti [2] | IDO suppressive activity on T-cell activity [3]
1 | Cn1cc(CC(N)C(=O)O)c2ccccc21 (stereo not drawn) [Example 1-MT] | inhibited | markedly delayed | can synergize with chemotherapeutic agents to reduce tumor growth in mice |  |  | 
2 | Cn1cc(C[C@H](N)C(=O)O)c2ccccc21 [1-methyl-tryptophan] |  |  |  | reversed | rapid, T cell-induced rejection of all allogeneic concept | blocked
